Literature values, collected in US4127536A, “Novel tricosapeptides, intermediates therefor and pharmaceutical compositions and methods employing said tricosapeptides” (priority 1977, dated 1978).

Tests used:
rat = conditions: injected directly into the brain of the rat
[1] = tested on: partially purified brain opiate receptor sites; conditions: natural peptide

In the case of “H-Tyr-Gly-Gly-Phe-Met-OH [methionine enkephalin]”, the analgesic activity (rat) is listed as “only weak analgesic agent of short duration” and the “binding to partially purified brain opiate receptor sites” value [1] is listed as “binds stereo-specifically”.
